Article PMC10762177, “Novel betulin derivatives as multidrug reversal agents targeting P-glycoprotein” (Scientific Reports, 2024)
Entries after “also recorded” stand apart in the source; their conditions may differ. Where two headings read alike, the source gives them in different places.

Key:
MA-104 cells = system: MA-104 cells; design: method as in Delou et al. 2009[44]; settings: 22 µM; ref Delou et al. 2009[44]; cited from earlier work
P-gp [1] = target: T1, P-gp (Homo sapiens, UniProt P08183); experiment: Rhodamine 123 intracellular accumulation assay in K562/Dox (flow cytometry); settings: for FAR (fluorescence activity ratio): Rho123, K562/Dox; for MEC (minimum effective concentration) / dose-dependent behavior, b: Rho123 accumulation; for MEC (minimum effective concentration) / dose-dependent behavior, b / Rho123 accumulation / anti-P-gp activity: K562/Dox; for Rho123 accumulation / anti-P-gp activity: highest concentrations tested (50 or 6.25 µM)
K562 cells [2] = experiment: Doxorubicin resistance reversal assay in K562 (MTT); assay type: cell-based; settings: K562, 1.56 µM
Experimental: (§1) Simultaneously, viability controls were run with no addition of the dissolution solvent. The cells were incubated at 37 °C at 5% CO2 for 48 h and the same protocol described above was followed. The potency of the compounds was established by means of the fold reversal (FR) values calculated from dividing the IC50 of Dox alone by the IC50 of Dox with different concentrations of each compound tested.

erythrocytes = experiment: Erythrocyte hemolysis assay; assay type: cell-based, human; settings: maximum tested concentration of 50 µM, 1 h
Experimental: For the erythrocyte hemolysis assay, the red blood cell suspension was obtained from fresh heparinized blood collected from healthy human volunteer donors, without receiving any treatment. The blood sample was centrifuged at 2,500 rpm for 10 min at 4 °C. The supernatant was discarded, and the red blood cell pellet was subjected to two consecutive washes with sterile PBS, using the same centrifugation conditions. An aliquot of the pellet obtained was resuspended in PBS (3% v/v). The compounds were incubated at decreasing concentrations starting from 50 µM with the suspension at 37 °C for 1 h. Controls with 1% DMSO and no solvent were included.

K562 cells [3] = experiment: Doxorubicin intracellular accumulation assay in K562 (flow cytometry); settings: K562, versus negative control
K562 cells [4] = experiment: MTT colorimetric assay, cytotoxicity on sensitive K562; assay type: cell-based; settings: for IC50: MTT, 48 h, K562
Experimental: (§2) This colorimetric technique is based on the ability of viable cells to capture MTT and reduce it through the mitochondrial enzyme succinic dehydrogenase to its insoluble form, formazan crystals. […] After this time, the plate was centrifuged at 2000 rpm for 10 min, and 100 µL of DMSO was added to dissolve the formazan crystals formed. Absorbance (Abs) was read at a wavelength of 595 nm in an iMark microplate reader (Bio-Rad, USA).

K562 cells [5] = experiment: Rhodamine 123 intracellular accumulation assay in K562 (flow cytometry); settings: for Rho123 accumulation in K562: K562, maximum concentration assayed
K562/Dox cells [6] = experiment: Doxorubicin resistance reversal assay in K562/Dox (MTT); settings: for FR (fold reversal): Dox co-administered
Experimental: as §1

[7] = Cytotoxicity on peripheral blood mononuclear cells (MTT); assay type: cell-based, human; settings: human
Experimental: (§3) . PBMC were isolated by the Ficoll-Hypaque density gradient centrifugation technique of fresh heparinized blood from healthy human volunteers. The protocol was previously approved by the Catholic University of Córdoba Research Ethics Board. Signed informed consents were obtained from donors. All methods were performed in accordance with the relevant guidelines and regulations. Briefly, 1 × 10^5 cells/well in a 96-well plate were incubated with 10 µg/mL PHA, in the presence of the corresponding concentrations of the compounds or 0.5% v/v DMSO (negative control) for 48 h, and processed as above described for the MTT method. The percentages of inhibition on cell proliferation were determined by comparison with negative controls, and the corresponding IC50 values were calculated from the best fit of the concentration-dependent inhibition curves in GraphPad Prism 7.

P-gp [8] = target: T1, P-gp; experiment: Doxorubicin intracellular accumulation assay in K562/Dox (flow cytometry)
K562/Dox cells [9] = experiment: MTT colorimetric assay, cytotoxicity on resistant K562/Dox; assay type: cell-based; settings: K562/Dox, MTT; for IC50: 48 h, read-out: IC50 K562/Dox
Experimental: as §2, with “crystals. The target compounds dissolved in DMSO (0.5% v/v as final concentration which was non-toxic to cells) at a maximum concentration of 50 µM were exposed to 5 × 10^4 cells distributed in a 96-well plate and incubated for 48 h.” for “crystals.”, “USA). The percentages of cytotoxicity were determined as compared to DMSO treated control cells, which were considered 100% viable as showing the same level of growth as the untreated cells.” for “USA).”

P-gp [10] = target: T1, P-gp
P-gp [11] = target: T1, P-gp; design: MDR phenotype mainly characterized by the overexpression of ABCB1/P-gp; endogenous in cells; host or cells: K562/Dox (formerly Lucena 1), drug-selected and kept under 60 nM Dox; parental K562 used as the low-P-gp control; settings: cited from earlier work
P-gp [12] = target: T1, P-gp; settings: Rho123 accumulation, K562/Dox; cited from earlier work
[13] = system: peripheral blood mononuclear cells (PBMC); experiment: Cytotoxicity on peripheral blood mononuclear cells (MTT); assay type: cell-based, human; settings: MTT, 48 h, up to 50 µM
Experimental: as §3

T1 sequence (P08183 whole entry): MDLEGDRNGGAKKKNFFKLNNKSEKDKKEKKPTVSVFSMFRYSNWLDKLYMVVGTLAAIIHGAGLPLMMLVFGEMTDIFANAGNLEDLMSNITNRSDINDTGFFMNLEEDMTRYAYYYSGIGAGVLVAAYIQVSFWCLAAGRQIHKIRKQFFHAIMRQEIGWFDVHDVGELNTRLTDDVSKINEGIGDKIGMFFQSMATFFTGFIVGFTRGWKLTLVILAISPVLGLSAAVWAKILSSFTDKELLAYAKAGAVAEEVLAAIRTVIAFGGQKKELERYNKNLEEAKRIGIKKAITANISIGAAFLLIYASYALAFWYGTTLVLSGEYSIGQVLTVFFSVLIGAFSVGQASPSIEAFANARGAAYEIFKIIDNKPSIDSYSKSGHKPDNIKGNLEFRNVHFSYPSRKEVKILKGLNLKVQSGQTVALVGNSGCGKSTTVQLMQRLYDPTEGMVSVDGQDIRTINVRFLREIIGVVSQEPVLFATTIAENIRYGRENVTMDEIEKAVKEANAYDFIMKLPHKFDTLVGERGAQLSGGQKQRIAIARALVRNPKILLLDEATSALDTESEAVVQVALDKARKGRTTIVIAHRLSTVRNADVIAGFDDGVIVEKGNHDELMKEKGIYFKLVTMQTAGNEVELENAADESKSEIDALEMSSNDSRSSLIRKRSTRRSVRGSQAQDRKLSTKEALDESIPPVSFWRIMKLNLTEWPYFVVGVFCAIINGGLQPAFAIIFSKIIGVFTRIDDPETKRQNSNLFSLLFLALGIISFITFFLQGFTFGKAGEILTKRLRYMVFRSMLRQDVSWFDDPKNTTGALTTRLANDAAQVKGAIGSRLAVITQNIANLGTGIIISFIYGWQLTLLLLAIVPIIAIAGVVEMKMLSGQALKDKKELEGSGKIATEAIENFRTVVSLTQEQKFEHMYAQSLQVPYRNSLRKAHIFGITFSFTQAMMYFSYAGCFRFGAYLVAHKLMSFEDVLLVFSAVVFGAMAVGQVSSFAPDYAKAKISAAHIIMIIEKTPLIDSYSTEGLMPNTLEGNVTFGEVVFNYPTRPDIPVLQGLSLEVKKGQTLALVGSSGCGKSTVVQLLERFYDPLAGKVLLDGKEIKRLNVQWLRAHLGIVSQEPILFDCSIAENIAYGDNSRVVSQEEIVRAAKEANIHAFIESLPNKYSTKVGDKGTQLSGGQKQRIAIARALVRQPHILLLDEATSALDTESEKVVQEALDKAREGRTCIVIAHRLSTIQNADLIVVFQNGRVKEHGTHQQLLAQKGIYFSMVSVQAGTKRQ

C=C(C)[C@@H]1CC[C@]2(C(=O)O)CC[C@]3(C)[C@H](CC[C@@H]4[C@@]5(C)CC[C@H](O)C(C)(C)[C@@H]5CC[C@]43C)[C@@H]12 [Compound 2, betulinic acid, reference compound]
Rho123 accumulation in MA-104 cells (MA-104 cells): not to alter Rho123 accumulation | FAR (fluorescence activity ratio) (P-gp [1]; 50 µM): 1.05 ± 0.04

C=C(C)[C@@H]1CC[C@]2(COC(=O)N3CCN(C)CC3)CC[C@]3(C)[C@H](CC[C@@H]4[C@@]5(C)CC[C@H](O)C(C)(C)[C@@H]5CC[C@]43C)[C@@H]12 [Compound 6i]
reversal effect on parental K562 (K562 cells [2]): did not show a reversal effect | erythrocyte hemolysis (erythrocytes): devoid of toxic effects; also recorded: Neither compound induced erythrocyte hemolysis | Dox accumulation in K562 (K562 cells [3]): did not increase Dox accumulation | toxicity (K562 cells [4]; 50 μM, K562, MTT): more than 55% | IC50 (K562 cells [4]; Homo sapiens, K562, 48 h): 19.1 µM | IC50 (K562 cells [4]): 19.1 ± 0.87 µM | Rho123 accumulation in K562 (K562 cells [5]): did not increase Rho123 accumulation | potency for restoring the cytotoxicity of Dox relative to compound 1 (times) (K562/Dox cells [6]): nearly twice | MEC, Dox resistance reversal (K562/Dox cells [6]; K562/Dox): 0.19 µM | FR (fold reversal) (K562/Dox cells [6]; K562/Dox, 0.19 µM): 1.39 ± 0.07 | FR (fold reversal) (K562/Dox cells [6]; K562/Dox, 0.78 µM): 1.63 ± 0.06 | FR (fold reversal) (K562/Dox cells [6]; K562/Dox, 1.56 µM): 2.69 ± 0.39 | IC50 at 48 h [7]: 26.4 ± 2.88 µM | viability at 48 h, 50 µM [7]: 64% | FAR (fluorescence activity ratio) (P-gp [1]; 0.19 µM): 1.08 ± 0.05 | FAR (fluorescence activity ratio) (P-gp [1]; 0.78 µM): 1.30 ± 0.06 | FAR (fluorescence activity ratio) (P-gp [1]; 1.56 µM): 1.41 ± 0.14 | FAR (fluorescence activity ratio) (P-gp [1]; 3.12 µM): 1.71 ± 0.06 | FAR (fluorescence activity ratio) (P-gp [1]; 6.25 µM): 2.04 ± 0.05 | MEC (minimum effective concentration) (P-gp [1]): 0.39 µM | dose-dependent behavior, b (P-gp [1]): 40.14 | MEC, Dox accumulation (P-gp [8]): 0.098 µM | FAR, Dox accumulation (P-gp [8]; 25 µM): 1.27 ± 0.03 | toxicity (K562/Dox cells [9]; 50 μM): more than 55% | IC50 (K562/Dox cells [9]; Homo sapiens, K562, 48 h): 33.91 ± 0.09 µM

COc1cc2c(cc1OC)CN(CCc1ccc(NC(=O)c3cc(OC)c(OC)cc3NC(=O)c3cnc4ccccc4c3)cc1)CC2 [Tariquidar, tariquidar, reference compound]
FAR (fluorescence activity ratio) (P-gp [10]; 1.56 µM): 1.22 ± 0.05 | FAR (fluorescence activity ratio) (P-gp [10]; 3.12 µM): 1.14 ± 0.03 | IC50 (K562 cells [4]; Homo sapiens, K562, 48 h): 2.4 µM | IC50 (K562 cells [4]): 2.38 ± 0.32 µM | FAR (fluorescence activity ratio) (K562 cells [5]; Rho123, K562, 3.12 µM): 0.82 ± 0.11 | FAR (fluorescence activity ratio) (P-gp [1]; 0.78 µM): 1.12 ± 0.03 | MEC (minimum effective concentration) (P-gp [1]): 0.78 µM | MEC, Dox accumulation (P-gp [8]): 0.39 µM | IC50 (K562/Dox cells [9]; Homo sapiens, K562, 48 h): 2.2 µM | IC50 (K562/Dox cells [9]): 2.25 ± 0.28 µM

CC1(C)CC[C@]2(C(=O)O)CC[C@]3(C)C(=CC[C@@H]4[C@@]5(C)CC[C@H](O)C(C)(C)[C@@H]5CC[C@]43C)[C@@H]2C1 [oleanolic acid]
effective concentration, P-gp inhibition (P-gp [11]): 2 µM

C=C(C)[C@@H]1CC[C@]2(CO)CC[C@]3(C)[C@H](CC[C@@H]4[C@@]5(C)CC[C@H](O)C(C)(C)[C@@H]5CC[C@]43C)[C@@H]12 [Compound 1, betulin]
MEC, Dox resistance reversal (K562/Dox cells [6]; K562/Dox): 0.39 µM | MEC (minimum effective concentration) (P-gp [12]): 1.56 µM | FAR (fluorescence activity ratio) (P-gp [1]; 0.78 µM): 1.01 ± 0.07 | FAR (fluorescence activity ratio) (P-gp [1]; 1.56 µM): 1.12 ± 0.03 | FAR (fluorescence activity ratio) (P-gp [1]; 3.12 µM): 1.23 ± 0.04 | FAR (fluorescence activity ratio) (P-gp [1]; 6.25 µM): 1.32 ± 0.06 | FAR (fluorescence activity ratio) (P-gp [1]; 12.50 µM): 1.80 ± 0.08 | FAR (fluorescence activity ratio) (P-gp [1]; 25 µM): 2.34 ± 0.19 | FAR (fluorescence activity ratio) (P-gp [1]; 50 µM): 2.77 ± 0.36

C=C(C)[C@@H]1CC[C@]2(C)CC[C@]3(C)[C@H](CC[C@@H]4[C@@]5(C)CC[C@H](O)C(C)(C)[C@@H]5CC[C@]43C)[C@@H]12 [lupeol]
effective concentration, P-gp inhibition (P-gp [11]): 100 µM

C=C(C)[C@@H]1CC[C@]2(COC(=O)NCCc3cc(OC)c(OC)c(OC)c3)CC[C@]3(C)[C@H](CC[C@@H]4[C@@]5(C)CC[C@H](O)C(C)(C)[C@@H]5CC[C@]43C)[C@@H]12 [Compound 6g]
reversal effect on parental K562 (K562 cells [2]): slight increase in Dox toxicity | erythrocyte hemolysis (erythrocytes): devoid of toxic effects; also recorded: Neither compound induced erythrocyte hemolysis | Dox accumulation in K562 (K562 cells [3]): did not increase Dox accumulation | IC50 (K562 cells [4]; Homo sapiens, K562, 48 h): > 50 µM | Rho123 accumulation in K562 (K562 cells [5]): did not increase Rho123 accumulation | MEC, Dox resistance reversal (K562/Dox cells [6]; K562/Dox): 0.024 µM | potency for restoring the cytotoxicity of Dox relative to compound 1 (times) (K562/Dox cells [6]; K562/Dox): 16 | FR (fold reversal) (K562/Dox cells [6]; K562/Dox, 0.024 µM): 1.17 ± 0.05 | FR (fold reversal) (K562/Dox cells [6]; K562/Dox, 0.78 µM): 3.98 ± 0.71 | FR (fold reversal) (K562/Dox cells [6]; K562/Dox, 1.56 µM): 5.37 ± 1.36 | cytotoxicity on PBMC [13]: devoid of toxic effects; also recorded: did not reveal cytotoxicity | FAR (fluorescence activity ratio) (P-gp [1]; 0.098 µM): 1.00 ± 0.04 | FAR (fluorescence activity ratio) (P-gp [1]; 0.19 µM): 1.09 ± 0.03 | FAR (fluorescence activity ratio) (P-gp [1]; 0.78 µM): 1.33 ± 0.14 | FAR (fluorescence activity ratio) (P-gp [1]; 1.56 µM): 1.61 ± 0.23 | FAR (fluorescence activity ratio) (P-gp [1]; 3.12 µM): 2.05 ± 0.36 | FAR (fluorescence activity ratio) (P-gp [1]; 6.25 µM): 2.62 ± 0.49 | FAR (fluorescence activity ratio) (P-gp [1]; 25 µM): 3.47 ± 0.61 | FAR (fluorescence activity ratio) (P-gp [1]; 50 µM): 4.02 ± 0.70 | MEC (minimum effective concentration) (P-gp [1]): 0.19 µM | dose-dependent behavior, b (P-gp [1]): 64.49 | MEC, Dox accumulation (P-gp [8]): 0.098 µM | FAR, Dox accumulation (P-gp [8]; 50 µM): 1.26 ± 0.02 | IC50 (K562/Dox cells [9]; Homo sapiens, K562, 48 h): > 50 µM

C=C(C)[C@@H]1CC[C@]2(COC(=O)c3ccc(OC)cc3)CC[C@]3(C)[C@H](CC[C@@H]4[C@@]5(C)CC[C@H](O)C(C)(C)[C@@H]5CC[C@]43C)[C@@H]12 [Compound 3a]
IC50 (K562 cells [4]; Homo sapiens, K562, 48 h): > 50 µM | Rho123 accumulation / anti-P-gp activity (P-gp [1]): did not induce statistically significant Rho123 accumulation | FAR (fluorescence activity ratio) (P-gp [1]; 50 µM): 0.88 ± 0.02 | MEC (minimum effective concentration) (P-gp [1]): > 50 µM | IC50 (K562/Dox cells [9]; Homo sapiens, K562, 48 h): > 50 µM

C=C(C)[C@@H]1CC[C@]2(COC(=O)/C=C/c3ccc(OC)cc3OC)CC[C@]3(C)[C@H](CC[C@@H]4[C@@]5(C)CC[C@H](O)C(C)(C)[C@@H]5CC[C@]43C)[C@@H]12 [Compound 3c]
IC50 (K562 cells [4]; Homo sapiens, K562, 48 h): > 50 µM | Rho123 accumulation / anti-P-gp activity (P-gp [1]): did not induce statistically significant Rho123 accumulation | FAR (fluorescence activity ratio) (P-gp [1]; 50 µM): 0.74 ± 0.05 | MEC (minimum effective concentration) (P-gp [1]): > 50 µM | IC50 (K562/Dox cells [9]; Homo sapiens, K562, 48 h): > 50 µM
